# Experimental data taken from PMC2630366 (The Journal of pharmacology and experimental therapeutics, 2008).
# Where two headings read alike, the source gives them in different places. Where no end group is shown, it is not given here.
# Experiments:
# mice [1] = conditions: 50 mgs/kg, ref Okamura et al., 2008; cited from earlier work
# [2] = ref Okamura et al., 2008; cited from earlier work
# mice [3] = conditions: administered into the amygdala in mice; ref Jungling et al., 2008; cited from earlier work
# Swiss mice = assay: Mouse righting reflex recovery test, Swiss mice; assay type: in vivo; conditions: diazepam 15 mg/kg i.p., 16 mice per group
# NPSR^+/+ mice = assay: Mouse righting reflex recovery test, NPSR^+/+ mice; assay type: in vivo; conditions: diazepam 15 mg/kg i.p.
# NPSR^-/- mice = assay: Mouse righting reflex recovery test, NPSR^-/- mice; assay type: in vivo; conditions: diazepam 15 mg/kg i.p.
# native hPAR2 = biological target: T1, native hPAR2 (Homo sapiens, UniProt P55085); assay: Selectivity: calcium mobilization, native hPAR2 in A549 cells; assay type: cell-based
# T1 sequence (P55085 26-397): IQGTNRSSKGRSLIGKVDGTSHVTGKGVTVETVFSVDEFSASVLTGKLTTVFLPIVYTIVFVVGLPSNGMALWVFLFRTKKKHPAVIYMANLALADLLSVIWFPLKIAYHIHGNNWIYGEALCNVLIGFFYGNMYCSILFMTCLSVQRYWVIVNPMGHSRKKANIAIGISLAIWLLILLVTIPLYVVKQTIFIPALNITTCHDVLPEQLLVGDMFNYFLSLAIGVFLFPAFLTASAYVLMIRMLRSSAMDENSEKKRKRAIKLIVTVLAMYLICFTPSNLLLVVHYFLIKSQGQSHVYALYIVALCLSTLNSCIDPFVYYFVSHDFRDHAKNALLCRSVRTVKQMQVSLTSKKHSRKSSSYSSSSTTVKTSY
compound,measurement,setting,value
"O=C(NCc1ccc(F)cc1)N1CCN2C(=O)OC(c3ccccc3)(c3ccccc3)C2C1 (centres unmarked) [SHA 68, 3-oxo-1,1-diphenyl-tetrahydro-oxazolo[3,4-a]pyrazine-7-carboxylic acid 4-fluoro-benzylamide]",effect on NPS-stimulated locomotion,mice [1],able to partially counteract the stimulatory effects of NPS on locomotion
same,blood brain barrier penetration,[2],limited blood brain barrier penetration
same,effect on anxiety and extinction of conditioned fear responses,mice [3],exerts functionally opposing responses
CN1C(=O)CN=C(c2ccccc2)c2cc(Cl)ccc21 [diazepam],percent of animals losing the righting reflex,Swiss mice,92%
same,percent of animals losing the righting reflex,NPSR^+/+ mice; 10-12 mice per group,100%
same,sleeping time (time to regain the RR),NPSR^+/+ mice; mean ± sem of 10-12 mice,180 ± 18 min
same,percent of animals losing the righting reflex,NPSR^-/- mice; 10-12 mice per group,100%
same,sleeping time (time to regain the RR),NPSR^-/- mice; mean ± sem of 10-12 mice,211 ± 19 min
SLIGKV-NH2 [SLIGKV-NH2],EC50,native hPAR2,21.9 µM
same,Emax,"native hPAR2; A549, read-out: Emax, control",449 ± 25%
same,Emax,"native hPAR2; A549, read-out: Emax, in presence of [D-Cys(tBu)^5]NPS 10 μM",433 ± 37%
